The target in one test is hMC1R (Homo sapiens, UniProt Q01726). The experiment in a line: cAMP accumulation, HEK293 cells expressing hMC1R. In kind it is cell-based. To be noted: hMC1R agonist EC50 versus other melanocortin receptors. A general note: cAMP levels reflect the balance of adenylyl cyclase and phosphodiesterase activity.
Test [1] concerns hMC1R Asp117Ala and Asp121Ala mutants. To be noted: hMC1R mutants versus wild type; cited from earlier work.
The next test concerns MC3R Asp158Ala mutation. To be noted: MC3R mutant versus wild type; cited from earlier work.
Test [2] relates to hMC1R Asp117Ala and Asp121Ala mutants. The note with it: hMC1R mutants versus wild type; cited from earlier work. This is another data set of the same source.

Square brackets hold non-standard residues; d marks the D form. Peptide text beside a SMILES is read from it. dPhe(4-CF3) = N[C@H](Cc1ccc(C(F)(F)F)cc1)C(=O)O; Nle = CCCC[C@H](N)C(=O)O

hMC1R, sequence (Q01726 whole entry): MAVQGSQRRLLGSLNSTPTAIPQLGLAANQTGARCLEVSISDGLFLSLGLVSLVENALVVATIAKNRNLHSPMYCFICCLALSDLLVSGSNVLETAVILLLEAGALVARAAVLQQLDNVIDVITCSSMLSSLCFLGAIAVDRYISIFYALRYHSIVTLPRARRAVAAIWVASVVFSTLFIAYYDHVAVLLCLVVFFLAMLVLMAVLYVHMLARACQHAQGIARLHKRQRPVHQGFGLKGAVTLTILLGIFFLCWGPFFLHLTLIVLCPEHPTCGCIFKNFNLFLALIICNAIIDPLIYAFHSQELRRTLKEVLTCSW

As to `CCCC[C@H](NC(=O)[C@@H](Cc1ccc(C(F)(F)F)cc1)NC(=O)[C@H](Cc1cnc[nH]1)NC(C)=O)C(=O)N[C@@H](Cc1c[nH]c2ccccc12)C(N)=O` [Peptide 5, Ac-His-DPhe(4-CF3)-Nle-Trp-NH2] (Ac-H[dPhe(4-CF3)][Nle]W-NH2), the “hMC1R selectivity to other MCR subtypes” value at hMC1R is “at least 25 fold”.

Consider NDP-α-MSH, for which the “increase on the EC50 value for the Asp117Ala and Asp121Ala mutants” value in test [1] was “around 10 fold”. Besides, the “increase for the EC50 value, Asp158Ala mutation” value in the test with MC3R Asp158Ala mutation was “more than 350 fold”. Besides, the “increase on the IC50 value for the Asp117Ala and Asp121Ala mutants” value in test [2] is recorded as “around 10 fold”.

Source of the values: publication PMC6003700 (European journal of medicinal chemistry, 2018).
